Legend:
c4 = system: T1, c4; details: read-out: Km (μM) / - Maltose; 10 mM sodium phosphate pH 7.0, 37°C, without maltose; BLA domain site; substrate range 100-400 µM, above the Km
T1 construct: gene malE

Ph8 = system: T2, Ph8; details: read-out: Km (μM) / - Maltose; 10 mM sodium phosphate pH 7.0, 37°C, without maltose; BLA domain site
T2 construct: gene malE

CC1(C)S[C@@H]2[C@H](NC(=O)[C@H](N)c3ccccc3)C(=O)N2[C@H]1C(=O)O [ampicillin] showed a Km (c4) of 73 ± 4 µM and a Km (Ph8) of 730 ± 120 µM.

From PMC3214044, “In Vitro Recombination of Non-Homologous Genes Can Result in Gene Fusions that Confer a Switching Phenotype to Cells” (PLoS ONE, 2011)
